Laboratory results: patent publication US20100048696A1, “AGRICULTURAL DISEASE CONTROL AGENT” (Idemitsu Kosan Co., Ltd., priority 2007, published 2010)
Like-named read-outs stand apart in the source and are kept apart here.

Columns and labels:
Assay type in all cases: cell-based
Conditions in all cases: 5 minutes
[1] = test system: Botrytis cinerea; test: Material disinfection test
[2] = test system: Pyricularia oryzae
[3] = test system: Rhizoctonia solani; test: Material disinfection test
[4] = test system: Pythium ultimum; test: Material disinfection test
[5] = test system: Burkholderia glumae; test: Material disinfection test
[6] = test system: Fusarium oxysporum; test: Material disinfection test
[7] = test system: Erwinia chrysanthemi; test: Material disinfection test
[8] = test system: Ralstonia solanacearum
[9] = test system: Burkholderia plantarii; test: Material disinfection test

SMILES | average value of viable filamentous fungi counts on all materials examined ([1]; 10 times solution sprayed) | average value of viable filamentous fungi counts on all materials examined ([1]; 50 times solution sprayed) | average value of viable filamentous fungi counts on all materials examined ([2]; 10 times solution sprayed) | average value of viable filamentous fungi counts on all materials examined ([2]; 50 times solution sprayed) | average value of viable filamentous fungi counts on all materials examined ([3]; 10 times solution sprayed) | average value of viable filamentous fungi counts on all materials examined ([3]; 50 times solution sprayed) | average value of viable filamentous fungi counts on all materials examined ([4]; 10 times solution sprayed) | average value of viable filamentous fungi counts on all materials examined ([4]; 50 times solution sprayed) | Average value of viable bacteria counts on all materials examined ([5]; 10 times solution sprayed) | Average value of viable bacteria counts on all materials examined ([5]; 50 times solution sprayed) | average value of viable filamentous fungi counts on all materials examined ([6]; 10 times solution sprayed) | average value of viable filamentous fungi counts on all materials examined ([6]; 50 times solution sprayed) | Average value of viable bacteria counts on all materials examined ([7]; 10 times solution sprayed) | Average value of viable bacteria counts on all materials examined ([7]; 50 times solution sprayed) | Average value of viable bacteria counts on all materials examined ([8]; 10 times solution sprayed) | Average value of viable bacteria counts on all materials examined ([8]; 50 times solution sprayed) | Average value of viable bacteria counts on all materials examined ([9]; 10 times solution sprayed) | Average value of viable bacteria counts on all materials examined ([9]; 50 times solution sprayed)
CC(=O)O [Acetic acid] | 65 cfu/ml | 2.6 × 10^2 cfu/ml | 98 cfu/ml | 1.5 × 10^2 cfu/ml | 33 cfu/ml | 3.1 × 10^2 cfu/ml | 58 cfu/ml | 6.8 × 10^3 cfu/ml | 5.0 × 10^2 cfu/ml | 3.3 × 10^7 cfu/ml | 76 cfu/ml | 4.2 × 10^2 cfu/ml | 3.2 × 10^3 cfu/ml | 1.1 × 10^7 cfu/ml | 2.8 × 10^2 cfu/ml | 6.0 × 10^8 cfu/ml | 1.2 × 10^3 cfu/ml | 8.3 × 10^6 cfu/ml
O=C1O[C@H]([C@@H](O)CO)C(O)=C1O [Ascorbic acid] | 4.5 × 10^5 cfu/ml | 5.0 × 10^5 cfu/ml | 4.2 × 10^4 cfu/ml | 6.2 × 10^4 cfu/ml | 1.3 × 10^5 cfu/ml | 2.0 × 10^5 cfu/ml | 2.3 × 10^4 cfu/ml | 1.5 × 10^4 cfu/ml | 1.1 × 10^8 cfu/ml | 3.2 × 10^8 cfu/ml | 3.2 × 10^5 cfu/ml | 4.7 × 10^5 cfu/ml | 1.0 × 10^8 cfu/ml | 1.0 × 10^8 cfu/ml | 8.5 × 10^8 cfu/ml | 1.0 × 10^9 cfu/ml | 1.6 × 10^7 cfu/ml | 1.8 × 10^7 cfu/ml
